Counter-ions that a name gives are not always drawn.
target: human NK1R (Homo sapiens, UniProt P25103); experiment: biochemical; type: binding; settings: 1 h; @ 03 μM; read-out: Substance P antagonism (%)
Protocol: To express the cloned human neurokinin-1-receotor (NK1R) transiently in COS, the cDNA for the human NK1R was cloned into the expression vector pCDM9 which was derived from pCDM8 (INVITROGEN) by inserting the ampicillin resistance gene (nucleotide 1973 to 2964 from BLUESCRIPT SK+ (trademark, […], La Jolla, Calif., U.S.A.)) into the Sac II site. Transfection of 20 ug of the plasmid DNA into 10 million COS cells was achieved by electroporation in 800 μl of transfection buffer (135 mM NaCl, 1.2 mM CaCl2, 1.2 mM MgCl2, 2.4 mM K2 HPO4, 0.6 mM KH2 PO4, 10 mM glucose, 10 mM N-2-hydroxyethyl-piperazine-N'-2-ethane sulphonic acid (HEPES) pH 7.4) at 260 V and 950 μF using the IBI GENEZAPPER (trademark IBI, New Haven, Conn., U.S.A.). The cells were incubated in 10% fetal calf serum, 2 mM glutamine, 100 U/ml penicillin-streptomycin, and 90% DMEM media (GIBCO, Grand Island, N.Y., U.S.A.) in 5% CO2 at 37° C. for three days before the binding assay.
To establish a stable cell line expressing cloned human NK1R, the cDNA was subcloned into the vector pRcCMV (INVITROGEN). Transfection of 20 ug of the plasmid DNA into CHO cells was achieved by electroporation in 800 μl of transfection buffer supplemented with 0.625 mg/ml Herring sperm DNA at 300 V and 950 μF using the IBI GENEZAPPER (IBI). The transfected cells were incubated. in CHO media [10% fetal calf serum, 100 U/ml penicillin-streptomycin, 2 mM glutamine, 1/500 hypoxanthinethymidine (ATCC), 90% IMDM media (JRH BIOSCIENCES, Lenexa, Kans., U.S.A.), 0.7 mg/ml G418 (GIBCO)] in 5% CO2 at 37° C. until colonies were visible. Each colony was separated and propagated. The cell clone with the highest number of human NK1R was selected for subsequent applications such as drug screening.
The binding assay of human NK1R expressed in either COS or CHO cells is based on the use of ^125 I-substance P (^125 I-SP, from DU PONT, Boston, Mass.) as a radioactively labeled ligand which competes with unlabeled substance P or any other ligand for binding to the human NK1R. […] The tubes were incubated at 4° C. or at room temperature for 1 hour with gentle shaking. The bound radioactivity was separated from unbound radioactivity by GF/C filter (BRANDEL, Gaithersburg, Md.) which was prewetted with 0.1% polyethylenimine. The filter was washed with 3 ml of wash buffer (50 mM Tris pH 7.5, 5 mM MnCl2, 150 mM NaCl) three times and its radioactivity was determined by gamma counter.

Sequence of human NK1R (P25103 whole entry): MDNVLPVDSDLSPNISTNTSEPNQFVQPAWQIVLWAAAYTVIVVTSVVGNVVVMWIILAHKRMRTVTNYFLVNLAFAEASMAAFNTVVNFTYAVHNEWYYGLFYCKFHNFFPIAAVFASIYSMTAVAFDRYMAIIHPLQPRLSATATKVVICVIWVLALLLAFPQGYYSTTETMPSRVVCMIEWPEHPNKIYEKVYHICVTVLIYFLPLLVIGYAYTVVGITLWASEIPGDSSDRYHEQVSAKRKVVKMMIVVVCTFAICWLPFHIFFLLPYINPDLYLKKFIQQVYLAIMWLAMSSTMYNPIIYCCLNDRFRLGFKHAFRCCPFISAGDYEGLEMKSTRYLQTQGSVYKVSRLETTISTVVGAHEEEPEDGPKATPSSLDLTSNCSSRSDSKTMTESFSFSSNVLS

inhibition at 0.3 µM [%] | SMILES
50 | O=C(Nc1ccccc1)NC(COCc1cc(C(F)(F)F)cc(C(F)(F)F)c1)C(c1ccccc1)c1ccccc1 (stereo not shown) [Example 43, N-(1-((3',5'-Bis(trifluoromethyl)phenyl)methyloxy)-3,3-diphenylprop-2-yl)-N'-phenylurea]

same assay, conditions: displacement of 125I-substance P; human NK1R in COS or CHO cells

IC50 [nM] | SMILES
0.4 | NC(=O)CNC(COCc1cc(C(F)(F)F)cc(C(F)(F)F)c1)C(c1ccccc1)c1ccccc1 (stereo not shown) [Example 30, 1-((3,5-Bis(trifluoromethyl)phenyl)methyloxy)-2-((carboxamido)methyl)ammoninm)-3,3-diphenylpropane oxalate salt]
200 | NC(COCc1cccc(Br)c1)C(c1ccccc1)c1ccccc1 (stereo not shown) [Example 31, 2-Ammonium-1-((3-bromophenyl)methyloxy)-3,3-diphenylpropane oxalate salt]
30 | NC(COCc1cc(Br)cc(Br)c1)C(c1ccccc1)c1ccccc1 (stereo not shown) [Example 32, 2-Ammonium-1-((3,5-dibromophenyl)methyloxy)-3,3-diphenylpropane oxalate salt]
20 | Cc1cc(Br)cc(COCC(N)C(c2ccccc2)c2ccccc2)c1 (stereo not shown) [Example 33, 2-Ammonium-1-((3-bromo-5-methylphenyl)methyloxy)-3,3-diphenylpropane oxalate salt]
10 | N#CCNC(COCc1cc(C(F)(F)F)cc(C(F)(F)F)c1)C(c1ccccc1)c1ccccc1 (stereo not shown) [Example 34, 1-((3,5-Bis(trifluoromethyl)phenyl)methyloxy)-2-(cyanomethyl)amino-3,3-diphenylpropane]
7 | Cc1cc(C)cc(COCC(C(c2ccccc2)c2ccccc2)N(C)CC(N)=O)c1 (stereo not shown) [Example 36, 2-(N-((Carboxamido)methyl)-N-methyl)ammonium-1-((3,5-dimethylphenyl)methyloxy)-3,3-diphenyl propane oxalate salt]
200 | CC(=O)N(C)C(COCc1cc(C)cc(C)c1)C(c1ccccc1)c1ccccc1 (stereo not shown) [Example 37]
70 | CC(=O)NC(COCc1cc(C)cc(C)c1)C(c1ccccc1)c1ccccc1 (stereo not shown) [Example 38, 2-Acetamido-1-(((3,5-dimethyl)phenyl)methyloxy)-3,3-diphenylpronane]
800 | Cc1cc(C)cc(COCC(C(c2ccccc2)c2ccccc2)N(C)C(=O)c2ccccc2)c1 (stereo not shown) [Example 39, 2-(((N-Methyl)benzamido)-1-((3,5-dimethyl)phenyl)methyloxy)-3,3-diphenylpropane]
580 | Cc1cc(C)cc(COCC(NC(=O)c2ccccc2)C(c2ccccc2)c2ccccc2)c1 (stereo not shown) [Example 40, 2-Benzamido-1-(((3,5-dimethyl)phenyl)methyloxy)3,3-diphenylpropane]
40 | CNC(=O)NC(COCc1cc(C(F)(F)F)cc(C(F)(F)F)c1)C(c1ccccc1)c1ccccc1 (stereo not shown) [Example 42, N-(1-((3',5'-Bis(trifluoromethyl)phenyl)methyloxy)-3,3-diphenylprop-2-yl)-N'-methyl urea]
15 | O=C(O)CNC(COCc1cc(C(F)(F)F)cc(C(F)(F)F)c1)C(c1ccccc1)c1ccccc1 (stereo not shown) [Example 44, N-(1-((3',5'-Bis(trifluoromethyl)phenyl)methyloxy)-3,3-diphenylprop-2-yl)glycine]
40 | Cc1cc(C)cc(COCC(NCC(=O)O)C(c2ccccc2)c2ccccc2)c1 (stereo not shown) [Example 45, N-(1-(((3',5'-Dimethyl)phenyl)methyloxy)-3,3-diphenylprop-2-yl)glycine]
4 | Cc1cc(C)cc(COCC(NCC(=O)NCC(N)=O)C(c2ccccc2)c2ccccc2)c1 (stereo not shown) [Example 46, N-(1-(((3',5'-Dimethyl)phenyl)methyloxy)-3,3-diphenylprop-2-yl)glycylglycine amide]
15 | Cc1cc(C)cc(COCC(NCC(=O)NCc2ccccc2)C(c2ccccc2)c2ccccc2)c1 (stereo not shown) [Example 47, N-(1-(((3',5'-Dimethyl)phenyl)methyloxy)-3,3-diphenylprop-2-yl)glycylbenzamide oxalate salt]
10 | CN(C)C(=O)CNC(COCc1cc(C(F)(F)F)cc(C(F)(F)F)c1)C(c1ccccc1)c1ccccc1 (stereo not shown) [Example 48, N-(1-((3',5'-Bis(trifluoromethyl)phenyl)methyloxy)-3,3-diphenylprop-2-yl)glycine dimethylamide hydrochloride salt]
15 | CN(C)C(=O)CN(C)C(COCc1cc(C(F)(F)F)cc(C(F)(F)F)c1)C(c1ccccc1)c1ccccc1 (stereo not shown) [Example 49, N-(1-((3',5'-Bis(trifluoromethyl)phenyl)methyloxy)-3,3-diphenylprop-2-yl)-N-methylglycine dimethylamide oxalate salt]
1 | O=C(CNC(COCc1cc(C(F)(F)F)cc(C(F)(F)F)c1)C(c1ccccc1)c1ccccc1)NCCO (stereo not shown) [Example 50, N-(1-((3',5'-Bis(trifluoromethyl)phenyl)methyloxy)-3,3-diphenylprop-2-yl)glycine 2-hydroxyethylamide]
1 | COCCNC(=O)CNC(COCc1cc(C(F)(F)F)cc(C(F)(F)F)c1)C(c1ccccc1)c1ccccc1 (stereo not shown) [Example 51, N-(1-((3',5'-Bis(trifluoromethyl)phenyl)methyloxy)-3,3-diphenylprop-2-yl)glycine 2-methoxyethylamide]
1 | CN(C)CCNC(=O)CNC(COCc1cc(C(F)(F)F)cc(C(F)(F)F)c1)C(c1ccccc1)c1ccccc1 (stereo not shown) [Example 52, N-(1-((3',5'-Bis(trifluoromethyl)phenyl)methyloxy)-3,3-diphenylprop-2-yl)glycine N',N'-dimethylethylamide bis oxalate salt]
2 | CNC(=O)CN(C)C(COCc1cc(C(F)(F)F)cc(C(F)(F)F)c1)C(c1ccccc1)c1ccccc1 (stereo not shown) [Example 54, 1-((3,5-Bis(trifluoromethyl)phenyl)methyloxy)-2-((N-((methylcarboxamido)methyl)-N-methyl)amino)-3,3-diphenylpropane monohydrate]
2 | Cc1cc(C)cc(COC[C@H](C(c2ccccc2)c2ccccc2)N(C)C)c1 [Example 55, (S)-2-Dimethylammonium-1-((3,5-dimethylphenyl)methyloxy)-3,3-diphenylpropane Oxalate salt]
18 | Cc1cc(C)cc(COC[C@@H](C(c2ccccc2)c2ccccc2)N(C)C)c1 [Example 56, (R)-2-Dimethylammonium-1-((3,5-dimethylphenyl)methyloxy)-3,3-diphenylpropane tosylate salt]
0.8 | NC(=O)CN[C@H](COCc1cc(C(F)(F)F)cc(C(F)(F)F)c1)C(c1ccccc1)c1ccccc1 [Example 57, (S)-1-((3',5'-Bis(trifluoromethyl)phenyl)methyloxy)-2-(((carboxamido)methyl)ammonium)-3,3-diphenylpropane oxalate salt]
80 | O=C(CCl)NC(COCc1cc(C(F)(F)F)cc(C(F)(F)F)c1)C(c1ccccc1)c1ccccc1 (stereo not shown) [Example 60]
30 | NCC(=O)NC(COCc1cc(C(F)(F)F)cc(C(F)(F)F)c1)C(c1ccccc1)c1ccccc1 (stereo not shown) [Example 61, 2-(2-Ammoniumacetamido)-1-((3,5-bis(trifluoromethyl)phenyl)methyloxy)-3,3-diphenylpropane oxalate salt hemihydrate]
200 | CN(C)CC(=O)NC(COCc1cc(C(F)(F)F)cc(C(F)(F)F)c1)C(c1ccccc1)c1ccccc1 (stereo not shown) [Example 62, 2-(2-(Dimethylamino)acetamido)-1-((3,5-bis(trifluoromethyl)phenyl)methyloxy)-3,3-diphenylpropane]
30 | O=C1CCC(C(=O)NC(COCc2cc(C(F)(F)F)cc(C(F)(F)F)c2)C(c2ccccc2)c2ccccc2)N1 (stereo not shown) [Example 63, 1-((3,5-Bis(trifluoromethyl)phenyl)methyloxy)-3,3-diphenyl-2-(pyroglutamylamido)propane]
35 | COC(=O)CCNC(COCc1cc(C(F)(F)F)cc(C(F)(F)F)c1)C(c1ccccc1)c1ccccc1 (stereo not shown) [Example 65, 1-((3,5-Bis(trifluoromethyl)phenyl)methyloxy)-2-(2-(carbomethoxy)ethylamino)-3,3-diphenylpropane]
4 | O=C1CN(C(COCc2cc(C(F)(F)F)cc(C(F)(F)F)c2)C(c2ccccc2)c2ccccc2)CCN1 (stereo not shown) [Example 66, 4-((1-((3,5-Bis(trifluoromethyl)phenyl)methyloxy)-3,3-diphenyl)prop-2-yl)piperazinium-2-one hemi oxalate salt]

Reference: patent publication US5629347A, “Aromatic compounds, pharmaceutical compositions containing them and their use in therapy” (Merck Sharp & Dohme Ltd., priority 1991, dated 1997)
